Data reported in ChEMBL document CHEMBL3856260, “A synergistic antitumor effect of polyphyllin I and formosanin C on hepatocarcinoma cells” (Bioorg Med Chem Lett, 2016).
The source made the active and inactive calls. No cut-off for these calls is given here.

Experiments:
[1] = Cytotoxicity against human HepG2 cells assessed as combination index at ED30 using 1:1 compound to polyphyllin I incubated for 24 hrs by MTT assay; type: functional
[2] = Cytotoxicity against human Bel7402 cells assessed as combination index at ED30 using 1:1 compound to polyphyllin I incubated for 24 hrs by MTT assay; type: functional, Bel-7402
[3] = Cytotoxicity against human HepG2 cells assessed as combination index at ED50 using 1:1 compound to polyphyllin I incubated for 24 hrs by MTT assay; type: functional
[4] = Cytotoxicity against human Bel7402 cells assessed as combination index at ED50 using 1:1 compound to polyphyllin I incubated for 24 hrs by MTT assay; type: functional, Bel-7402
[5] = Induction of apoptosis in human HepG2 cells assessed as upregulation of p53 mRNA level at 1 uM incubated for 24 hrs by RT-PCR analysis in presence of polyphyllin I; type: functional, cell-based
[6] = Induction of apoptosis in human HepG2 cells assessed as upregulation of Bax mRNA level at 1 uM incubated for 24 hrs by RT-PCR analysis in presence of polyphyllin I; type: functional, cell-based
[7] = Induction of apoptosis in human HepG2 cells assessed as upregulation of caspase3 mRNA level at 1 uM incubated for 24 hrs by RT-PCR analysis in presence of polyphyllin I; type: functional, cell-based
[8] = Induction of apoptosis in human HepG2 cells assessed as upregulation of p53 level at 1 uM incubated for 24 hrs by Western blot analysis in presence of polyphyllin I; type: functional, cell-based
[9] = Induction of apoptosis in human HepG2 cells assessed as upregulation of Bax level at 1 uM incubated for 24 hrs by Western blot analysis in presence of polyphyllin I; type: functional, cell-based
[10] = Induction of apoptosis in human HepG2 cells assessed as upregulation of caspase3 level at 1 uM incubated for 24 hrs by Western blot analysis in presence of polyphyllin I; type: functional, cell-based
HepG2 [11] = assay: Induction of apoptosis in human HepG2 cells assessed as downregulation of Bcl2 mRNA level at 1 uM incubated for 24 hrs by RT-PCR analysis in presence of polyphyllin I; type: functional, cell-based
HepG2 [12] = assay: Induction of apoptosis in human HepG2 cells assessed as downregulation of NF-kappaB […] level at 1 uM incubated for 24 hrs by RT-PCR analysis in presence of polyphyllin I; type: functional, cell-based
HepG2 [13] = assay: Induction of nuclear fragmentation in human HepG2 cells at 0.5 uM after 24 hrs by Hoechst 33258 staining-based fluorescence microscopic analysis in presence of polyphyllin I; type: functional, cell-based
HepG2 [14] = assay: Induction of chromatin compaction in human HepG2 cells at 0.5 uM after 24 hrs by Hoechst 33258 staining-based fluorescence microscopic analysis in presence of polyphyllin I; type: functional, cell-based
HepG2 [15] = assay: Induction of nuclear fragmentation in human HepG2 cells at 1 uM after 24 hrs by Hoechst 33258 staining-based fluorescence microscopic analysis; type: functional, cell-based
HepG2 [16] = assay: Induction of chromatin compaction in human HepG2 cells at 1 uM after 24 hrs by Hoechst 33258 staining-based fluorescence microscopic analysis; type: functional, cell-based
[17] = Cell cycle arrest in human HepG2 cells assessed as accumulation at G1 phase at 1 uM after 24 hrs by propidium iodide staining-based flow cytometry(reference value: 55.62%); type: functional
[18] = Cell cycle arrest in human HepG2 cells assessed as accumulation at S phase at 1 uM after 24 hrs by propidium iodide staining-based flow cytometry(reference value: 42.33%); type: functional
[19] = Cell cycle arrest in human HepG2 cells assessed as accumulation at G2 phase at 1 uM after 24 hrs by propidium iodide staining-based flow cytometry(reference value: 2.04%); type: functional
HepG2 [20] = assay: Induction of apoptosis in human HepG2 cells at 1 uM after 24 hrs by propidium iodide staining-based flow cytometry(reference value: 3.01%); type: functional
[21] = Cell cycle arrest in human HepG2 cells assessed as accumulation at G1 phase at 1 uM after 24 hrs by propidium iodide staining-based flow cytometry in presence of PPI (reference value: 55.62%); type: functional
[22] = Cell cycle arrest in human HepG2 cells assessed as accumulation at G2 phase at 1 uM after 24 hrs by propidium iodide staining-based flow cytometry in presence of PPI (reference value: 2.04%); type: functional
[23] = Cell cycle arrest in human HepG2 cells assessed as accumulation at S phase at 1 uM after 24 hrs by […] staining-based flow cytometry in presence of PPI (reference value: 42.33%); type: functional
HepG2 [24] = assay: Induction of apoptosis in human HepG2 cells at 1 uM after 24 hrs by propidium iodide staining-based flow cytometry in presence of PPI (reference value: 3.01%); type: functional
HepG2 [25] = assay: Increase in p21 mRNA level in human HepG2 cells at 1 uM incubated for 24 hrs by RT-PCR analysis in presence of polyphyllin I relative to formosanin C alone treatment; type: functional, cell-based
HepG2 [26] = assay: Decrease in cyclin E mRNA level in human HepG2 cells at 1 uM incubated for 24 hrs by RT-PCR analysis in presence of polyphyllin I relative to formosanin C alone treatment; type: functional, cell-based
HepG2 [27] = assay: Decrease in CDK2 level in human HepG2 cells at 1 uM incubated for 24 hrs by Western blot analysis in presence of polyphyllin relative to relative to polyphyllin I alone treatment; type: functional, cell-based
HepG2 [28] = assay: Change in PCNA mRNA level in human HepG2 cells at 1 uM incubated for 24 hrs by RT-PCR analysis in presence of polyphyllin I relative to formosanin C alone treatment; type: functional, cell-based
HepG2 [29] = assay: Increase in p21 level in human HepG2 cells at 1 uM incubated for 24 hrs by Western blot analysis in presence of polyphyllin I; type: functional, cell-based
HepG2 [30] = assay: Decrease in cyclin E level in human HepG2 cells at 1 uM incubated for 24 hrs Western blot analysis in presence of polyphyllin I; type: functional, cell-based
HepG2 [31] = assay: Decrease in CDK2 level in human HepG2 cells at 1 uM incubated for 24 hrs by Western blot analysis in presence of polyphyllin I; type: functional, cell-based
[32] = Suppression of MMP9 expression in human HepG2 cells assessed as reduction in enzyme activity at 1 uM after 24 hrs by zymographic analysis in presence of polyphyllin I; type: functional, cell-based
HepG2 [33] = assay: Antimigratory activity in human HepG2 cells at 1 uM after 24 hrs by wound healing assay in presence of polyphyllin I; type: functional, cell-based
HepG2 [34] = assay: Induction mitochondrial membrane potential changes in human HepG2 cells at 1 uM after 24 hrs by rhodamine 123 staining-based flow cytometry (reference value: 23.8+/-2.3%); type: functional
HepG2 [35] = assay: Induction mitochondrial membrane potential changes in human HepG2 cells at 1 uM after 24 hrs by rhodamine 123 staining-based flow cytometry in presence of polyphyllin I (reference value: 23.8+/-2.3%); type: functional
HepG2 [36] = assay: Induction of Bax translocation from cytosol to mitochondria in human HepG2 cells by Western blot analysis in presence of polyphyllin I; type: functional, cell-based
HepG2 [37] = assay: Induction of cytochrome c release in human HepG2 cells by Western blot analysis in presence of polyphyllin I; type: functional, cell-based
[38] = Cytotoxicity against human HepG2 cells after 24 hrs by MTT assay; type: functional, cell-based; settings: HepG2, 24 h
[39] = Cytotoxicity against human Bel7402 cells after 24 hrs by MTT assay; type: functional, cell-based; settings: Bel-7402, 24 h
[40] = Cytotoxicity against human HepG2 cells assessed as combination index at ED75 using 1:1 compound to polyphyllin I incubated for 24 hrs by MTT assay; type: functional
[41] = Cytotoxicity against human Bel7402 cells assessed as combination index at ED75 using 1:1 compound to polyphyllin I incubated for 24 hrs by MTT assay; type: functional, Bel-7402
[42] = Cytotoxicity against human HepG2 cells assessed as combination index at ED90 using 1:1 compound to polyphyllin I incubated for 24 hrs by MTT assay; type: functional
[43] = Cytotoxicity against human Bel7402 cells assessed as combination index at ED90 using 1:1 compound to polyphyllin I incubated for 24 hrs by MTT assay; type: functional, Bel-7402
HepG2 [44] = assay: Change in PCNA mRNA level in human HepG2 cells at 1 uM incubated for 24 hrs by RT-PCR analysis in presence of polyphyllin I relative to polyphyllin I alone treatment; type: functional, cell-based
[45] = Suppression of MMP9 expression in human HepG2 cells at 1 uM after 24 hrs by Western blot analysis in presence of polyphyllin I; type: functional, cell-based
HepG2 [46] = assay: Induction of Bax translocation from cytosol to mitochondria in human HepG2 cells by Western blot analysis; type: functional, cell-based
HepG2 [47] = assay: Induction of cytochrome c release in human HepG2 cells by Western blot analysis; type: functional, cell-based

Compound `C[C@@H]1CC[C@@]2(OC1)O[C@H]1C[C@H]3[C@@H]4CC=C5C[C@@H](O[C@@H]6O[C@H](CO)[C@@H](O[C@@H]7O[C@@H](C)[C@H](O[C@@H]8O[C@@H](C)[C@H](O)[C@@H](O)[C@H]8O)[C@@H](O)[C@H]7O)[C@H](O)[C@H]6O[C@@H]6O[C@@H](C)[C@H](O)[C@@H](O)[C@H]6O)CC[C@]5(C)[C@H]4CC[C@]3(C)[C@H]1[C@@H]2C` [PENNOGENIN RAHAMNOSYL CHACOTRIOSIDE] has a CI [1] of 0.62, a CI [2] of 0.67 and a CI [3] of 0.58. The CI [4] was 0.58, the Activity [5] was “Active” and the Activity [6] was “Active”. The Activity [7] was “Active”, the Activity [8] was “Active” and the Activity [9] was “Active”. The Activity [10] was “Active”, the Activity (HepG2 [11]) was “Active” and the Activity (HepG2 [12]) was “Active”. The Activity (HepG2 [13]) was “Active”, the Activity (HepG2 [14]) was “Active” and the Activity (HepG2 [15]) was “Active”. For the same compound, the Activity (HepG2 [16]) was “Active”, the Activity [17] was 60.9% and the Activity [18] was 36.4%. It also gave an Activity [19] of 2.74%, an Activity (HepG2 [20]) of 6.96% and an Activity [21] of 68.7%. The Activity [22] was 2.63%, the Activity [23] was 28.7% and the Activity (HepG2 [24]) was 7.52%. For the same compound, the Activity (HepG2 [25]) was “Active”, the Activity (HepG2 [26]) was “Active” and the Activity (HepG2 [27]) was “Active”. For the same compound, the Activity (HepG2 [28]) was “Active”, the Activity (HepG2 [29]) was “Active” and the Activity (HepG2 [30]) was “Active”. For the same compound, the Activity (HepG2 [31]) was “Active”, the Activity [32] was “Active” and the Activity (HepG2 [33]) was “Active”. The Activity (HepG2 [34]) was 32.6%, the Activity (HepG2 [35]) was 40.6% and the Activity (HepG2 [36]) was “Active”. For the same compound, the Activity (HepG2 [37]) was “Active”, the IC50 [38] was 3.76 µM and the IC50 [39] was 4.36 µM. For the same compound, the CI [40] was 0.56, the CI [41] was 0.52 and the CI [42] was 0.54. For the same compound, the CI [43] was 0.46, the Activity (HepG2 [44]) was “Active” and the Activity [45] was “Active”. For the same compound, the Activity (HepG2 [46]) was “Active” and the Activity (HepG2 [47]) was “Active”.
